Assay results as given in patent US11261189B2, “Substituted 2,4 diamino-quinoline as new medicament for fibrosis, autophagy and cathepsins B (CTSB), L (CTSL) and D (CTSD) related diseases” (Genoscience Pharma, priority 2018, dated 2022).
Where a name gives a salt, the structure may show the parent alone.

Test system: diethyl nitrosamine (DEN) cirrhotic rat model of liver fibrosis
Test: DEN induced cirrhosis in rats, study 1: Sirius red quantification of liver fibrosis
Assay type: in vivo
Settings: 6 weeks after 14 weeks DEN
Source text: This animal model allows developing an extensive liver fibrosis, leading to a compensated liver cirrhosis with a multifocal hepatocarcinoma (HCC) after 14 weeks of induction (Schiffer, E. et al. Hepatology 2005 (41), 307-314). The DEN cirrhotic rat animal model was used here as a specific animal model of liver fibrosis.
Forty two Fisher 344 male rat (obtained from Charles River Laboratories France, including spare animals), weighting approximately 280 g at the start of the study, were randomized in 5 groups of 8 (groups 1, 2, 3 and 5) or 6 (group 4) animals and housed with 3 animals per cage, given free access to food and water and allowed to acclimate for at least 5 days prior to test initiation.
The DEN cirrhotic rat model was obtained after 14 weekly intraperitoneal injections of DEN (intra-peritoneal injections (i.p.) of DEN at 50 mg/kg/week). The animals were then treated according to Table 9 during 6 weeks. In this in vivo experiment, the anti-fibrotic activity of compound 2-3 was evaluated in liver fibrosis animal model, alone or in combination with Sorafenib (a multikinase inhibitor of Raf-1, B-Raf, VEGFR-2, VEGFR3, PDGFRβ, Flt3 and c-Kit). After 6 weeks of treatment, all animals were sacrificed using CO2 and rat livers were collected for analysis. The quantification of the liver fibrotic tissue was evaluated by Sirius red staining of rat liver sections.
Group 1 contained 8 animals which were daily dosed (q.d.) by oral gavage (per os, p.o.) with the vehicle during 6 weeks.
Group 2 contained 8 animals which were daily dosed (q.d.) by oral gavage (per os, p.o.) with Sorafenib at 10 mg/kg/day during 6 weeks.
Group 3 contained 8 animals which were daily dosed (q.d.) by oral gavage (per os, p.o.) with compound 2-3 at 15 mg/kg/day during 6 weeks.
Group 4 contained 6 animals which were daily dosed (q.d.) by oral gavage (per os, p.o.) with compound 2-3 at 15 mg/kg/day in combination with Sorafenib at 10 mg/kg/day during 6 weeks.
Group 5 contained 8 animals which were daily dosed (q.d.) by oral gavage (per os, p.o.) with compound 2-3 at 30 mg/kg/day during 6 weeks. […]

CC(C)(C)NC1CCN(c2cc(NCc3ccc(Cl)cc3)nc3ccccc23)CC1 [2-3, 2-(4-chlorobenzylamino)-4-(4-tert-butylaminopiperidin-1-yl)-quinoline Hydrochloride Salt]
reduction of the level of collagen fibers deposition (Sirius red) compared to the control group (group 3: 15 mg/kg/day p.o. q.d., p<0.05): 41.0% | reduction of the level of collagen fibers deposition (Sirius red) compared to the control group (group 5: 30 mg/kg/day p.o. q.d., p=0.01): 45.3%
